Measurements reported in ChEMBL document CHEMBL6134786, “Design and synthesis of novel 8-(azaindolyl)-benzoazepinones as potent and selective ROCK inhibitors” (RSC Med Chem, 2024).
Values after ≈ are worked out from the molar mass of the structure shown.

Key:
[1] = Metabolic stability in rat microsomes assessed as half life; type: ADME, Microsome
[2] = Kinetic solubility of the compound in PBS at pH 7.2; type: physicochemical; conditions: read-out: Kinetic_solubility
cells = conditions: Homo sapiens, Pulmonary Artery Smooth Muscle Cells, read-out: pEC50 (converted)
[3] = Apparent permeability across apical to basolateral side in human Caco-2 cells; type: ADME, cell-based

SMILES	half-life [1] [min]	solubility kinetic [2] [µM]	EC50 (cells) [µM]	Papp A→B [3] [nm/s]
O=C1Cc2cc(-c3ccnc4[nH]ccc34)ccc2CCN1c1ccccc1	18	< 5	0.0126	269
COc1cccc(N2CCc3ccc(-c4ccnc5[nH]ccc45)cc3CC2=O)c1	–	–	0.0316	–
O=C1Cc2cc(-c3ncnc4[nH]ccc34)ccc2CCN1c1ccccc1	–	–	0.0501	–
O=C1Cc2cc(-c3cn[nH]c3)ccc2CCN1c1ccccc1	–	–	0.398	–
Nc1cc(-c2ccc3c(c2)CC(=O)N(c2ccccc2)CC3)ccn1	–	–	0.316	–
CN1CCN(CCCOc2cccc(N3CCc4ccc(-c5ccnc6[nH]ccc56)cc4CC3=O)c2)CC1	8.4	–	0.00501	56
O=C1CCc2ccc(-c3ccnc4[nH]ccc34)cc2CN1c1ccccc1	–	131 (≈ 46.3 µg/mL)	–	–
